In US20240335570A1, “FOLATE RECEPTOR-TARGETED CONJUGATES WITH BRUSH BORDER MEMBRANE ENZYME-CLEAVABLE LINKERS AND METHODS OF USE IN IMAGING AND TREATING CANCER” (PURDUE RESEARCH FOUNDATION, priority 2021, published 2024):
No end group written: not given here.

System: KB cells
Experiment: Folate conjugate binding curves in KB cells by flow cytometry
Settings: KB cells incubated 1 hour at 4° C. with increasing concentrations of conjugate, concentrations normalized via fluorescence, read-out: Kd (folate conjugate binding curve)
Method: KB cells were incubated for 1 hour at 4° C. with increasing concentrations of OTL38, BBM1, BBM2, or BBM3 in staining buffer, washed three times with staining buffer, and then analyzed via flow cytometry.
KB cells were incubated for 1 hour at 4° C. with increasing concentrations of OTL38, BBM1, BBM2 or BBM3 in staining buffer, washed three times with staining buffer, suspended in phosphate-buffered saline, and then analyzed via flow cytometry. Concentrations of all conjugates were normalized via fluorescence.

Compound | Kd [nM]
CCCCCN1c2ccc(C)cc2C(C)(C)C1CCc1cccc(CCC2N(CCCCC)c3ccc(C)cc3C2(C)C)c1Oc1ccc(CCNC(=O)CCN2C(=O)CC(SCC(NC(=O)C(CCCCN)NC(=O)[C@@H](NC(=O)C(CCCC)NC(=O)CCC(NC(=O)c3ccc(NCc4cnc5nc(N)nc(O)c5n4)cc3)C(=O)O)C(C)C)C(=O)O)C2=O)cc1 (stereo partly drawn) [BBM1] | 12.3
BBM2: Folate dye conjugate; a peptide with the sequence M-V-K-G-Y-G-K-C (MVKGYGKC; also: folate dye conjugate (site not given here)) | 29.6
OTL38 [reference compound] | 6.7
